Measured values taken from US20050031600A1, “Cardiac function by mesenchymal stem cell transplantation” (Genzyme Corporation, priority 1998, published 2005).

Tested on: mesenchymal stem cells (MSCs)
Test: Cardiomyogenic differentiation of cultured rat MSCs in vitro (myotube formation, immunofluorescent staining)
Type: cell-based
Settings: for staining for cardiac specific troponin I / staining for myosin heavy chain: cultured MSCs, 21st day
Experimental: An incision was made in the hindlimb of each rat while the rat was under general anesthesia. An 18-gauge needle was punctured to the bone and used to aspirate bone marrow (1 ml) from the tibia. The marrow aspirate was transferred to sterile tubes, which contained 10 ml Iscove's modified Dulbecco medium (TMDM; Gibco Laboratories, Gaithersberg, Md.), containing antibiotics (penicillin G, 100 U/ml; streptomycin, 100 μg/ml) and 1000 IU heparin. The marrow cell suspension was dispersed into single cells using a 23-gauge needle. The tube was spun at 2000 rpm for 5 min to pellet the cells. After removing the supernatant and fat layer, the cell pellet was re-suspended with IMDM. To separate bone marrow cells and red blood cells, the density centrifugation method described by Yablonka-Reuveni and Nameroff (Histochemistry, 87:27-38, 1987) was used. First, the cell suspension was loaded onto 20% and 60% Percoll (Sigma Chemical Co., St. Louis, Mo.) layers, which were piled up in a tube, and the tube was centrifuged at 14000 rpm. for 10 minutes. […] The cells were centrifuged at 2,000 rpm for 10 minutes and then washed with phosphate-buffered saline (PBS) to remove the Percoll. This was repeated and then the cell pellet was resuspended in culture medium and used for in vitro and in vivo studies.
To identify the optimal conditions for inducing mesenchymal stem cell (MSC) differentiation by 5-azacytidine, the cells were cultured in IMDM containing 10% fetal bovine serum and antibiotics, with 5-azacytidine (5-aza: 0.1, 1, 5, 10, 20, and 100 μM; n=6 for each group), with insulin (1 nM; n=6), or with TGFβ1 (10 ng/ml; n=6). The cells were incubated with these agents for 24 hours and then washed with PBS. The medium was changed twice a week for 21 days. Almost all the hematopoietic stem cells were washed away with the medium changes.
To test the effect of cell passaging on cardiomyogenic differentiation of MSCs, samples of MSCs, prepared as described above, were passaged once prior to preparing the cell cultures described below. In this case, the term passaging refers to the distribution of cultured cells growing in a culture dish into new dishes after the cells reach confluence (i.e. when the cells contact each other and cover the surface of the dish).
One group of the MSCs, prepared as above, was, in turn, divided into two groups: A (control) and B, each group having 6 samples. Cells of the control group, A, were cultured for 7 days in IMDM containing 10% fetal bovine serum and antibiotics. The MSCs of group B were initially cultured for 2 days in the above medium after which 5-aza (10 μM) was added to the culture medium. After a 24 hour exposure to 5-aza, the compound was washed out of the culture and the cells were culturing in the medium described above for 4 days more.
Following the above culturing period, the cells from both groups were stained by immunocytofluorescence to detect the presence of cardiac-specific troponin I (a contractile apparatus-specific protein found only in cardiomyocytes) or muscle-specific myosin heavy chain. Briefly, the staining method entailed washing the cells with phosphate-buffer saline (PBS), followed by incubation in methanol at −20° C. for 20 minutes. The dishes were then washed with PBS three times. Monoclonal antibodies specific against cardiac troponin I (Spectral Diagnostic, Toronto) or against myosin heavy chain (Biogenesis, USA), were added to the cells and the dishes were incubated at 37° C. for 1 hour. To remove unbound antibody, the dishes were gently shaken at room temperature and washed three times with PBS. A rabbit antibody conjugated with FITC (fluorescein isothiocyanate) against mouse IgG was added to the dishes, after which incubation and rinsing with PBS were performed as described above for the first antibody. Observations were made and photos were taken. […]

[1] = cultured bone marrow MSCs, 5-aza added on third day, seen on 10th day of culture

Row | Compound | myotube formation (5 μM 5-aza for 24 hours) | number of MSCs in cultures (10 μM 5-aza added on first or second day compared with third day after isolation) | number of myotubes, visually determined (10 μM 5-aza compared with 5 μM 5-aza) | myotube formation (10 μM 5-aza for 24 hours) | necrotic cells (MSCs incubated with 5-aza at 20 μM) | necrotic cells (MSCs incubated with 5-aza at 100 μM) | differentiation into cardiomyocyte-like cells (myotube formation) (MSCs passaged once, then 5-aza 10 μM for 24 hours) | cell morphology (concentrations of 5-aza lower than 5 μM) | staining for cardiac specific troponin I | staining for myosin heavy chain | myotube formation [1]
1 | Nc1ncn([C@@H]2O[C@H](CO)[C@@H](O)[C@H]2O)c(=O)n1 [5-aza, 5-azacytidine] | myotube formation was present | much smaller | greater | myotube formation was present | more than 50% | more than 50% | did not differentiate into cardiomyocyte-like cells | morphologically similar to the control cells | stained positively | stained positively | formed multinucleated myotubes
2 | TGFβ1 |  |  |  |  |  |  |  |  | negative | negative | did not form myotubes
3 | insulin |  |  |  |  |  |  |  |  | negative | negative | did not form myotubes
